# From patent publication US20240366584A1, “COMBINATION TREATMENT OF CANCER WITH A PARP INHIBITOR AND A LIPOPHILIC STATIN” (TESARO, INC., priority 2021, published 2024)
# Like-named read-outs stand apart in the source and are kept apart here.
# Tests used:
# [1] = cited from earlier work
# [2] = tested on: participants with advanced ovarian cancer; assay: post-hoc analysis of the PRIMA clinical trial (progression free survival); format: in vivo, human; conditions: post hoc subgroups, Kaplan-Meier
# Excerpt: This example describes a post-hoc analysis of the PRIMA clinical trial.
# This was an exploratory post hoc analysis.
# For the subgroup analyses, we performed a two-sided log-rank test using randomization stratification factors (best response to last platinum; HRD status; and time from penultimate platinum to progression) to analyze PFS (progression free survival), which was summarized with the use of Kaplan-Meier methods. We estimated hazard ratios with two-sided 95% Confidence Intervals (CIs) using a stratified Cox proportional hazards (PH) model, with the stratification factors used in randomization.
# The Cox model for interaction testing also included stratification factors used in randomization as covariates.
# [3] = pH 7.0, Shitara et al., Pharmacology & Therapeutics, 2006
# [4] = pH 7.4, Matre et al., Vascular Health and Risk Management, 2016
structure (smiles),measurement,setting,value
CC(C)n1c(/C=C/C(O)CC(O)CC(=O)O)c(-c2ccc(F)cc2)c2ccccc21 (stereo not drawn) [fluvastatin],log D,[1]; [3],1.75
same,log D,[1]; [4],1.75
CC[C@H](C)C(=O)O[C@H]1C[C@@H](C)C=C2C=C[C@H](C)[C@H](CC[C@@H]3C[C@@H](O)CC(=O)O3)[C@H]21 [lovastatin],log D,[1]; [3],3.91
same,log D,[1]; [4],2.59
NC(=O)c1cccc2cn(-c3ccc([C@@H]4CCCNC4)cc3)nc12 [niraparib],mPFS,[2],13.7 months
O=C(O)C[C@H](O)C[C@H](O)/C=C/c1c(C2CC2)nc2ccccc2c1-c1ccc(F)cc1 [pitavastatin],log D,[1]; [3],1.50
same,log D,[1]; [4],1.50
CC[C@H](C)C(=O)O[C@H]1C[C@H](O)C=C2C=C[C@H](C)[C@H](CC[C@@H](O)C[C@@H](O)CC(=O)O)[C@H]21 [pravastatin],log D,[1]; [3],−0.47
CC(C)c1nc(N(C)S(C)(=O)=O)nc(-c2ccc(F)cc2)c1/C=C/[C@@H](O)C[C@@H](O)CC(=O)O [rosuvastatin],log D,"[1]; pH 7.4, Shitara et al., Pharmacology & Therapeutics, 2006",−0.25 to −0.50
